Laboratory results as given in PMC4811675 (Cancer cell, 2016).
Where a SMILES comes first, the peptide text is derived from it. The star is where a group is joined. Cbz = O=C(OCc1ccccc1)*

Tests used:
[1] = biological target: T1, SIRT3 (Homo sapiens, UniProt Q9NTG7); assay: HPLC-based sirtuin inhibition assay, SIRT3; format: biochemical; settings: at 200 µM
T1 sequence (Q9NTG7 1-399): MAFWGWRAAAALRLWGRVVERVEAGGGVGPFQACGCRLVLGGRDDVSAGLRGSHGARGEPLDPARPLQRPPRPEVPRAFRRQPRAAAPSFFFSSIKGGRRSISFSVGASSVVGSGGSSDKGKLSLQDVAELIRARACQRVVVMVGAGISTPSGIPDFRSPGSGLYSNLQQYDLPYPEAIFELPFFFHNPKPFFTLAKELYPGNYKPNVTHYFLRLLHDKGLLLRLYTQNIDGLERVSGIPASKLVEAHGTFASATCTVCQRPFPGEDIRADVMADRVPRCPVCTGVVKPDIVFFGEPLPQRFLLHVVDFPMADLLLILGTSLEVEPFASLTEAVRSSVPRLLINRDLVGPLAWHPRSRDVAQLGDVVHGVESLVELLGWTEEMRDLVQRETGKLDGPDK

[2] = test system: MCF-7, MDA-MB-468 and MDA-MB-231; assay: Cell viability assay; format: cell-based, human; settings: 72 hr, up to 50 µM
[3] = test system: MDA-MB-231 cells; assay: Cell viability assay; format: cell-based, human; settings: read-out: IC50 cell viability; 72 hr
[4] = test system: MCF-10A and HME1; assay: Cell viability assay; format: cell-based, human; settings: 72 hr, compared with malignant cells
[5] = test system: MCF-7 cells; assay: Soft agar colony formation assay; format: cell-based, human; settings: 25 µM in ethanol
[6] = test system: NCI-60 panel of human cancer cell lines; assay: NCI-60 cell line screening; format: cell-based; settings: single dose of 10 µM, 24 hr
[7] = test system: BT-549; assay: NCI-60 cell line screening, BT-549; format: cell-based, human; settings: 10 µM TM
[8] = test system: MDA-MB-231 human breast cancer xenograft; assay: MDA-MB-231 xenograft model in immunocompromised mice; format: in vivo
[9] = Detection of TM in mouse serum, fat and tumor tissues by mass spectrometry; format: in vivo, mice; settings: IP administration
[10] = test system: MMTV-PyMT mammary tumors; assay: MMTV-PyMT mammary tumor model; format: in vivo, mice
[11] = test system: c-Myc; assay: c-Myc protein level in MCF-7 cells; format: cell-based, human; settings: 25 µM
[12] = test system: c-Myc; assay: c-Myc protein level in BT-549 cells; format: cell-based, human; settings: 25 µM
[13] = test system: MCF-7 cells; assay: Cell cycle distribution and β-galactosidase senescence staining in MCF-7 cells; format: cell-based, human; settings: 25 µM
[14] = test system: c-Myc; assay: c-Myc transcription, turnover and NEDD4 expression in MCF-7 cells; format: cell-based, human
[15] = 30 days treatment, compared with vehicle
[16] = 30 days treatment, relative to vehicle

CCCCCCCCCCCCCC(=S)NCCCCC(NC(=O)OCc1ccccc1)C(=O)Nc1ccccc1 (centres unmarked) [TM]
inhibition of SIRT3 [1]: did not inhibit | inhibition of cell viability [2]: greater inhibition of cell viability | IC50 [3]: 34 µM | sensitivity of cell viability to TM [4]: much less sensitive | anchorage-independent growth (soft agar colony formation) [5]: significantly inhibited | cell lines inhibited by >50% [6]: 36/56 | viability [7]: ~100% | body weight ([8]; 1.5 mg TM daily, 30 days): no significant weight loss | toxicity in mice ([8]; 1.5 mg TM daily, 30 days): did not cause significant toxicity | tumor growth ([8]; 1.5 mg TM in 50 µL DMSO daily, IT or IP, 30 days, versus vehicle): significantly inhibited tumor growth | acetyl-α-tubulin level in xenograft tumors [8, 15]: moderately but statistically significantly increased | Ki-67+ cells in tumors [8, 16]: significant decrease in Ki-67^+ cells | TM content in abdominal fat [9]: significant amount of TM accumulated in abdominal fat | TM content in tumors [9]: reached the tumors | acetyl-α-tubulin level in tumors [10, 15]: modest but statistically significant increase | proliferation of tumor cells by Ki-67 staining [10, 16]: significant decrease in proliferation of tumor cells | mean latency to tumor onset ([10]; daily IP 1.5 mg TM in 50 µL DMSO, control group 48 days): 54 days | tumor-free survival ([10]; daily IP 1.5 mg TM, compared with vehicle): significantly prolonged | c-Myc protein level [11]: decreased c-Myc protein level in a time-dependent manner | c-Myc protein abundance [12]: did not have a significant effect | cell cycle distribution ([13]; 0-72 hr, flow cytometry): pronounced increase in cells arrested in G0/G1 phase | cellular senescence by β-galactosidase staining ([13]; 5 days): significant cellular senescence | NEDD4 expression ([14]; MCF-7 and K562 cells, 25 µM TM): up-regulated by TM at the transcriptional level | half-life of c-Myc ([14]; MCF-7 cells, 25 µM 4 hr then CHX): shortened | c-Myc mRNA level ([14]; MCF-7 cells, 25 µM, RT-PCR): not affected

CC(C)C[C@@H](C=O)NC(=O)[C@H](CC(C)C)NC(=O)[C@H](CC(C)C)NC(=O)OCc1ccccc1 [MG132, reference compound] (Cbz-Leu-Leu-Leu-aldehyde)
effect on TM-induced down-regulation of c-Myc ([14]; MCF-7 cells, TM 25 µM 4 hr then MG132 10 µM 2 hr): prevented the TM-induced down-regulation of c-Myc
